Reference: publication PMC6081404, “Active Transport of Peptides Across the Intact Human Tympanic Membrane” (Scientific Reports, 2018)

Test system: rat TM fragment
Test: Integrity of the TM fragment and seal, trypan-blue dye transit into the lower chamber
Assay type: in vitro ADME
Conditions: 0.5% trypan-blue in upper chamber, immediately and after 1–4 hours, visual and absorbance at 590 nm
Source text: Rat TMs were interposed between the two chambers.

Structure (SMILES): Cc1cc(-c2ccc(/N=N/c3c(S(=O)(=O)O)cc4cc(S(=O)(=O)O)cc(N)c4c3O)c(C)c2)ccc1/N=N/c1c(S(=O)(=O)O)cc2cc(S(=O)(=O)O)cc(N)c2c1O [trypan-blue]
- dye transit into the lower chamber across an intact TM fragment: excluded from the lower chamber
